These results are taken from patent US20100143441A1 (OsteoGeneX Inc., priority 2008, published 2010).

Experiment [1] deals with SOST (Mus musculus, UniProt Q99P68). The note with it: predetermined dose for a complete dosing schedule, micro-CT versus control mouse.
Description: (§1) A general method of identifying SOST antagonists involves evaluating the effects of antagonist candidates on bone formation under controlled conditions. Preferably bone formation is determined using micro-CT techniques on live animals. Preferred animals include rodents, more preferred are primates. Femur, tibia and vertebrae bones are particularly useful subjects for such study.
Briefly, the test animal is treated with a predetermined dose of a SOST antagonist candidate.
This can be accomplished by any suitable method, but is preferably performed on live animals to analyze the bone mineral content. […] A SOST antagonist candidate suitable for use as a SOST antagonist is identified by noting significant bone formation in the test animal when compared to the control animal. Bone formation in the test bone(s) of the test animal can be 0.5%, 1, 5, 10, 20, 30, 40, 50, 60, 70, 80, 90, 100, 200, 300, 400, 500, 600, 700, 800, 900 or 1000% more bone formation than is present in the same bones of the control animal. More preferably, bone formation can be 20%, most preferably 30% or 40%. Where necessary, levels of bone formation can be calculated by determining the volume of bone formation present in each animal. Calculations can be performed by constructing a 3-dimensional image of the bone formation and calculating the volume from the image with the aid of e.g., histomorphometry. […]
For experiment [2], the system named is Wnt pathway. The note with it: Wnt+Sclerostin+2.5, 6.3, 12.5 or 25 ng nortriptyline; compared with Wnt only and Wnt+Sclerostin.
Description: as §1

Chain of SOST (Q99P68 24-211): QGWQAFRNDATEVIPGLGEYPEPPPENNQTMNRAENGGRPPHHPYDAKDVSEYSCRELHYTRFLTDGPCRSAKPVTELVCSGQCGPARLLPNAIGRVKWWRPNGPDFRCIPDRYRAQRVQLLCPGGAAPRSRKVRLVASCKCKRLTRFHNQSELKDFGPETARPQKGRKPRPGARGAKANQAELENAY

For `CNCCC=C1c2ccccc2CCc2ccccc21` [nortriptyline], in experiment [1], the “bone growth (quantity of bone formation present)” value is “promoting bone growth”. The “modulation of the Wnt pathway” value in experiment [2] is “modulating the Wnt pathway”.
